The results in this text go back to ChEMBL document CHEMBL3259629, “Discovery and optimization of piperidyl-1,2,3-triazole ureas as potent, selective, and in vivo-active inhibitors of α/β-hydrolase domain containing 6 (ABHD6)” (J Med Chem, 2013).

The structures appear in SMILES notation.

Holding throughout (details): Neuro2a, 3 nM
Experiment [1] addresses T1, Diacylglycerol lipase-beta (Mus musculus) (UniProt Q91WC9).
T1 sequence (whole entry): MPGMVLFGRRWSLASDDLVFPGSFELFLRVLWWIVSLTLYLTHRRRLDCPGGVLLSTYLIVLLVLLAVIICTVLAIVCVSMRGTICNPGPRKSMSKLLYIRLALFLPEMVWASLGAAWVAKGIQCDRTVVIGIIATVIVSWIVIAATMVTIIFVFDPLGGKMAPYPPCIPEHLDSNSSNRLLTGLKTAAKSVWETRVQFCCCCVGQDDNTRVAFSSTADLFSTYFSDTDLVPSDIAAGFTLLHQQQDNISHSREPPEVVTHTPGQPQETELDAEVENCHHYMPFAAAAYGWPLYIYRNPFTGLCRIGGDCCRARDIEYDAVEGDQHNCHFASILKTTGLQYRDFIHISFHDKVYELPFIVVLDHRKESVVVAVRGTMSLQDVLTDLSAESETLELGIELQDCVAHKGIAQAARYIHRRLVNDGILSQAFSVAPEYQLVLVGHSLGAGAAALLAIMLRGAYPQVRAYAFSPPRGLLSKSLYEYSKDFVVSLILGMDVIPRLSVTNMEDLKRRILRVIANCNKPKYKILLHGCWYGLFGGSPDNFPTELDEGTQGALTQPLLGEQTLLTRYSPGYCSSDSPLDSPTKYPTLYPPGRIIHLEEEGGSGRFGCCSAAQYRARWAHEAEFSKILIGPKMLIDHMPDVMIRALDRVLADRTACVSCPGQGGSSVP
Description: Inhibition of Daglb in mouse Neuro2a cells at 3 nM after 4 hrs by ABPP-SILAC assay

Experiment [2] concerns the target Prolyl endopeptidase (Mus musculus) (UniProt Q9QUR6).
Description: Inhibition of Perp in mouse Neuro2a cells at 3 nM after 4 hrs by ABPP-SILAC assay
In experiment [3] the target is T2, Serine beta-lactamase-like protein LACTB, mitochondrial (Mus musculus) (UniProt Q9EP89).
T2 sequence (whole entry): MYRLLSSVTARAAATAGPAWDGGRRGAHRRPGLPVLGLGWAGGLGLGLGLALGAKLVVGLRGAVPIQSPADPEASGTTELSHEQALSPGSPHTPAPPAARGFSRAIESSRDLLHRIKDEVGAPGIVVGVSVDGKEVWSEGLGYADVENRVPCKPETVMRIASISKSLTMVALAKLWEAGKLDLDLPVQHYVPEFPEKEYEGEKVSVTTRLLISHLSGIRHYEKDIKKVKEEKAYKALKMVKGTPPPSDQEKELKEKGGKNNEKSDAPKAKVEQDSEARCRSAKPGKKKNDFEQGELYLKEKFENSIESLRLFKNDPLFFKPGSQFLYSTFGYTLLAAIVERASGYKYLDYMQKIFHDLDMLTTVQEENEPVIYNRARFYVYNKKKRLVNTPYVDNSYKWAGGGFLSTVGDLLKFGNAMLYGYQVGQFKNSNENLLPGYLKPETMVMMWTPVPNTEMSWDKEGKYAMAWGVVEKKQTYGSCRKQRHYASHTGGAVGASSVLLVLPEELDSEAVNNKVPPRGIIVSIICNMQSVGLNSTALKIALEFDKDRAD
Description: Inhibition of Lactb in mouse Neuro2a cells at 3 nM after 4 hrs by ABPP-SILAC assay

Experiment [4] concerns the target Acyl-protein thioesterase 1 (Mus musculus) (UniProt P97823).
Description: Inhibition of Lypla1 in mouse Neuro2a cells at 3 nM after 4 hrs by ABPP-SILAC assay
Experiment [5] addresses T3, Monoacylglycerol lipase ABHD6 (Mus musculus) (UniProt Q8R2Y0).
T3 sequence (whole entry): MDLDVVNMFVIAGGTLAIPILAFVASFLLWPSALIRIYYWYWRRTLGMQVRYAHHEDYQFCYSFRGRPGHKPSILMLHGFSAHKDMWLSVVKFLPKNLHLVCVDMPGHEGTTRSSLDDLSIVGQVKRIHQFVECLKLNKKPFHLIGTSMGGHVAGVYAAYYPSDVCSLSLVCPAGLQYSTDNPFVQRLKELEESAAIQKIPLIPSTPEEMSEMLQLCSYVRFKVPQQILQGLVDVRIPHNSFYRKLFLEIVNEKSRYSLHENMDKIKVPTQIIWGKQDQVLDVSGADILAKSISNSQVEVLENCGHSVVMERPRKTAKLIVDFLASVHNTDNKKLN
Description: Inhibition of Abhd6 in mouse Neuro2a cells at 3 nM after 4 hrs by ABPP-SILAC assay

Experiment [6] deals with Platelet-activating factor acetylhydrolase 2, cytoplasmic (Mus musculus) (UniProt Q8VDG7).
Chain of Platelet-activating factor acetylhydrolase 2, cytoplasmic (Mus musculus) (Q8VDG7 whole entry): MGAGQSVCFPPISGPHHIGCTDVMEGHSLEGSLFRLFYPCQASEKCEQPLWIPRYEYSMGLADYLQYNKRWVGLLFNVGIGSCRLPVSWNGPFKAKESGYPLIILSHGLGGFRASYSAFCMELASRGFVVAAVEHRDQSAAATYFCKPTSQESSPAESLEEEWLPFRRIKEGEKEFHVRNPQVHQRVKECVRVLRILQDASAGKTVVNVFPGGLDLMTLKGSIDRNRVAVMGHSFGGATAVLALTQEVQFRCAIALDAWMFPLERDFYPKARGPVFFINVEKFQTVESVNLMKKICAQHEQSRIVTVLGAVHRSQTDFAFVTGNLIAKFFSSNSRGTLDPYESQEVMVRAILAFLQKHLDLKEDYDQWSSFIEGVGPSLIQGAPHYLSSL
Description: Inhibition of Pafah2 in mouse Neuro2a cells at 3 nM after 4 hrs by ABPP-SILAC assay
The target in experiment [7] is T3, Monoacylglycerol lipase ABHD6 (Mus musculus). This is another data set of the same source.
Experiment [8] has as its target Serine hydrolase RBBP9 (Mus musculus) (UniProt O88851).
Description: Inhibition of Rbbp9 in mouse Neuro2a cells at 3 nM after 4 hrs by ABPP-SILAC assay
For experiment [9], the target named is T4, Fatty-acid amide hydrolase 1 (Mus musculus) (UniProt O08914).
T4 sequence (whole entry): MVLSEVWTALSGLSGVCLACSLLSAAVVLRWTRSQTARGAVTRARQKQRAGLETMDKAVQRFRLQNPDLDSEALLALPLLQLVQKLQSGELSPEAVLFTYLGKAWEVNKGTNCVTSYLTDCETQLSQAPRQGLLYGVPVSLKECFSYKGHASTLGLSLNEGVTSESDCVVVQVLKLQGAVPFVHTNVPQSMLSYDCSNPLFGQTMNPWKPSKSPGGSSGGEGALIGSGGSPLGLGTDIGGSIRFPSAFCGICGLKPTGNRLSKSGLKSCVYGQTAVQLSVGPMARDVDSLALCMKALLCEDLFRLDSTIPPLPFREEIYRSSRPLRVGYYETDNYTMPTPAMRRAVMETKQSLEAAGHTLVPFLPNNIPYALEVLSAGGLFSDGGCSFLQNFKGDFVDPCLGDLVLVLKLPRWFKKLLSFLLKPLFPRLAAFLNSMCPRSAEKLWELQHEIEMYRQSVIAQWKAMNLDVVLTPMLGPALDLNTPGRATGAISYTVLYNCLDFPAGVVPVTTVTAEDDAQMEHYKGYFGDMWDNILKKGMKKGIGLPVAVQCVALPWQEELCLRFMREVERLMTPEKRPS
Description: Inhibition of Faah in mouse Neuro2a cells at 3 nM after 4 hrs by ABPP-SILAC assay

The target of experiment [10] is T5, Retinoid-inducible serine carboxypeptidase (Mus musculus) (UniProt Q920A5).
T5 sequence (whole entry): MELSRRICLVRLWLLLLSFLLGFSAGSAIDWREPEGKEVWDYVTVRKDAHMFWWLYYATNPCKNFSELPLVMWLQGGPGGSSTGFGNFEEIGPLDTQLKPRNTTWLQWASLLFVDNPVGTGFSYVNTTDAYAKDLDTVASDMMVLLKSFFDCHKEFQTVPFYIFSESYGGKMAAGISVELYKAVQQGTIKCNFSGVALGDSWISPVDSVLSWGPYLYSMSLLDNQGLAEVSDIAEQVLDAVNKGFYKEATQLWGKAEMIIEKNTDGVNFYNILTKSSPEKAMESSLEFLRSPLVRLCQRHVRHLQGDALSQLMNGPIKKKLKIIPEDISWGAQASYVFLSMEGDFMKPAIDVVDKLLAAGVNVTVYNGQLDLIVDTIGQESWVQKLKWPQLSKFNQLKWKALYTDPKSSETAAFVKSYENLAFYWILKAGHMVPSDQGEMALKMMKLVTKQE
Description: Inhibition of Scpep1 in mouse Neuro2a cells at 3 nM after 4 hrs by ABPP-SILAC assay

Chain of Prolyl endopeptidase (Mus musculus) (Q9QUR6 whole entry, looked up): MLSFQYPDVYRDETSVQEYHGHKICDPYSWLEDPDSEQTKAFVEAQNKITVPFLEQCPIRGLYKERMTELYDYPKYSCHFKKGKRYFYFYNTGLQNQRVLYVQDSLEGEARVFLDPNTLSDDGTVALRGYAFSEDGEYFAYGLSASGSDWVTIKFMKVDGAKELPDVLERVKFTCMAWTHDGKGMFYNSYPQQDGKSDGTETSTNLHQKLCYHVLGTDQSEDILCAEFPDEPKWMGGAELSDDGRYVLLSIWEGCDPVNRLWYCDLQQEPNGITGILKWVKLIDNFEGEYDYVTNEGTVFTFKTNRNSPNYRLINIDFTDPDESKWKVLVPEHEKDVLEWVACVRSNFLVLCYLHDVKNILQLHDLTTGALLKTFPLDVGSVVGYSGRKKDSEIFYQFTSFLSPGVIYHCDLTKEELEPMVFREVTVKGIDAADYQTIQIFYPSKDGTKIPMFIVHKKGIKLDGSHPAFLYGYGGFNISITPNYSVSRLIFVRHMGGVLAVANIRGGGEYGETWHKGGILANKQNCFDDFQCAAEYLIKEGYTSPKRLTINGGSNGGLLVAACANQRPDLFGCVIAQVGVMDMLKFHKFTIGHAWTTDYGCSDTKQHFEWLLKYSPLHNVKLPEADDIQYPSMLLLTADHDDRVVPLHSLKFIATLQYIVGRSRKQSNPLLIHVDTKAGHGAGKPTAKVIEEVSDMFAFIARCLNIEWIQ
Chain of Serine hydrolase RBBP9 (Mus musculus) (O88851 whole entry): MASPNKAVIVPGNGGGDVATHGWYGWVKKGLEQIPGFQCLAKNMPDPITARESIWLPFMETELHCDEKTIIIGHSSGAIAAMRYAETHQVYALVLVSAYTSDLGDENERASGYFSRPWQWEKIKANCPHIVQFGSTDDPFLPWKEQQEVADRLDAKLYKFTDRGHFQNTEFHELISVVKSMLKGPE
Chain of Acyl-protein thioesterase 1 (Mus musculus) (P97823 whole entry): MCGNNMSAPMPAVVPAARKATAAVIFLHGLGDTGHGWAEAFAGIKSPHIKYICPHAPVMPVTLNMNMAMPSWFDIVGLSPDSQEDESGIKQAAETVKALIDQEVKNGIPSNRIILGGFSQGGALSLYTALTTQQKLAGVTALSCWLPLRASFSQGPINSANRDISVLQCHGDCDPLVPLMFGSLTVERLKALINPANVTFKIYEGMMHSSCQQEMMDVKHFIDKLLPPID

For the compound `O=C(N1CCCCC1c1ccccc1)n1cc(-c2ccc(-c3cccc(CO)c3)cc2)nn1` (racemic), the inhibition (as a rule, the drop in the measured response relative to a control, in per cent) was under 50% in experiment [1]; under 50% in experiment [2]; under 50% in experiment [3]; under 50% in [4]; over 90% in [5]; under 50% in [6]. The inhibition was over 90% in experiment [7], under 50% in [8], under 50% in [9] and under 50% in experiment [10].

Turning to `O=C(c1cccc(-c2ccc(-c3cn(C(=O)N4CCCCC4c4ccccc4)nn3)cc2)c1)N1CCCCC1` (racemic), the inhibition in experiment [1] is under 50%; in experiment [2], under 50%; in [3], under 50%; in [4], under 50%; in experiment [5], over 80%; in experiment [6], under 50%. For the same compound, the inhibition in experiment [7] was over 80%; in experiment [8], under 50%; in experiment [9], under 50%; in [10], under 50%.

Take `O=C(O)c1cccc(-c2ccc(-c3cn(C(=O)N4CCCCC4Cc4ccccc4)nn3)cc2)c1` (racemic): the inhibition in [1] is under 50%; in experiment [2], under 50%; in experiment [3], under 50%; in [4], under 50%; in experiment [5], over 90%; in experiment [6] it was under 50%. The inhibition in experiment [7] was over 90%; in experiment [8] it was under 50%; in experiment [9] it was under 50%; in experiment [10] it was under 50%.
